From patent publication US8946223B2, “Substituted hydroxamic acids and uses thereof” (Millennium Pharmaceuticals, Inc., priority 2010, dated 2015) come the findings set out here.

As a reminder, the IC50 is the concentration that inhibits the measured activity by half. Low values mean inhibition by little substance, high ones a need for much substance.

Structures are written as SMILES.

The first experiment concerns the target T1, purified human HDAC6 (Homo sapiens, UniProt Q9UBN7).
T1 construct: purchased BPS Bioscience 5006
T1 sequence (Q9UBN7 1-1215): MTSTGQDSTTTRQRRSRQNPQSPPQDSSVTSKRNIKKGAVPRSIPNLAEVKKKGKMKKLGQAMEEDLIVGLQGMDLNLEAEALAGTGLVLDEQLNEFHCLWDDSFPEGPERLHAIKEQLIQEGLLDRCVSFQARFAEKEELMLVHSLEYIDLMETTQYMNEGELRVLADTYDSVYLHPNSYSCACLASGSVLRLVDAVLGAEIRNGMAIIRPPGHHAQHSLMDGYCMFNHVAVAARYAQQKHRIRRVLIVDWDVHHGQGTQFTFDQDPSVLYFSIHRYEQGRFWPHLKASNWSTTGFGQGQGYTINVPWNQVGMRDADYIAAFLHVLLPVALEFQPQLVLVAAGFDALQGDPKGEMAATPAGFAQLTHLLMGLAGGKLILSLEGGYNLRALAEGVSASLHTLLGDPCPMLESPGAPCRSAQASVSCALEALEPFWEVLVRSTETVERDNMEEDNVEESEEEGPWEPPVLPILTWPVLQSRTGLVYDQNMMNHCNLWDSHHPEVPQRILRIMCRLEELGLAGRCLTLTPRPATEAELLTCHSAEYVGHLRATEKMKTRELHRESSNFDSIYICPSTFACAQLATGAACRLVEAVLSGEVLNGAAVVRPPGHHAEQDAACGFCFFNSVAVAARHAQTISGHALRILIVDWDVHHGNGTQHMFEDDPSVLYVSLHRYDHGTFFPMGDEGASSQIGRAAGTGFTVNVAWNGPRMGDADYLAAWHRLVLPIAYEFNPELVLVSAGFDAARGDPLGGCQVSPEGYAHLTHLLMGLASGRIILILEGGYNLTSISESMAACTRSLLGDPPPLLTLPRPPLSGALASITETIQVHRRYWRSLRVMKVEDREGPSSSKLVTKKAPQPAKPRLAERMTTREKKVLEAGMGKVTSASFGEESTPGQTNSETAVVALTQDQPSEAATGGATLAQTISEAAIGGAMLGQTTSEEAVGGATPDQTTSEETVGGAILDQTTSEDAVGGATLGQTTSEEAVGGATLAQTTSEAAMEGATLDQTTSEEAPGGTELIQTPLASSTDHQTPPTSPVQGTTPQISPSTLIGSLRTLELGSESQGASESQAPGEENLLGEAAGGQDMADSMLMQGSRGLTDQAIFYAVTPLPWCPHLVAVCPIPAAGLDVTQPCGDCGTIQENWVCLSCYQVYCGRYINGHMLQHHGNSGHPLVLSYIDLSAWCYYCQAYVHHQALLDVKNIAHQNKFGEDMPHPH
Description: HDAC6 enzyme assay. The note with it: bin: less than 100 nM. The experiment is classed as biochemical. As for the experimental part:
To measure the inhibition of HDAC6 activity, purified human HDAC6 (BPS Bioscience; Cat. No. 5006) is incubated with substrate Ac-Arg-Gly-Lys(Ac)-AMC peptide (Bachem Biosciences; Cat. No. I-1925) for 1 hour at 30° C. in the presence of test compounds or vehicle DMSO control. The reaction is stopped with the HDAC inhibitor trichostatin A (Sigma; Cat. No. T8552) and the amount of Arg-Gly-Lys-AMC generated is quantitated by digestion with trypsin (Sigma; Cat. No. T1426) and subsequent measurement of the amount of AMC released using a fluorescent plate reader (Pherastar; BMG Technologies) set at Ex 340 nm and Em 460 nm. Concentration response curves are generated by calculating the fluorescence increase in test compound-treated samples relative to DMSO-treated controls, and enzyme inhibition (IC50) values are determined from those curves.
`O=C(NO)c1cn2c(n1)CN(C(=O)c1ccc(-c3ccccc3)cc1)CC2` [Compound I-2, 7-(biphenyl-4-ylcarbonyl)-N-hydroxy-5,6,7,8-tetrahydroimidazo[1,2-a]pyrazine-2-carboxamide] had an IC50 of under 100 nM.

`O=C(NO)c1cc2n(c1)CCN(C(=O)c1csc3ccccc13)C2` [Compound I-10, 2-(1-benzothien-3-ylcarbonyl)-N-hydroxy-1,2,3,4-tetrahydropyrrolo[1,2-a]pyrazine-7-carboxamide] registered an IC50 of under 100 nM. For `O=C(NO)c1cc2n(n1)CCN(C(=O)c1ccc(OCc3ccccc3)cc1)C2` [Compound I-17, 5-[4-(benzyloxy)benzoyl]-N-hydroxy-4,5,6,7-tetrahydropyrazolo[1,5-a]pyrazine-2-carboxamide], the IC50 was under 100 nM. Same read-out and setting: the result for `Cn1c(C(=O)N2CCn3cc(C(=O)NO)cc3C2)cc2ccccc21` [Compound I-20, N-hydroxy-2-[(1-methyl-1H-indol-2-yl)carbonyl]-1,2,3,4-tetrahydropyrrolo[1,2-a]pyrazine-7-carboxamide] reads under 100 nM; that for `Cc1ccc2[nH]c(C(=O)N3CCn4cc(C(=O)NO)cc4C3)cc2c1` [Compound I-22, N-hydroxy-2-[(5-methyl-1H-indol-2-yl)carbonyl]-1,2,3,4-tetrahydropyrrolo[1,2-a]pyrazine-7-carboxamide], under 100 nM; that for `Cc1ccc2[nH]c(C(=O)N3CCn4cc(C(=O)NO)cc4C3)c(C)c2c1` [Compound I-28, 2-[(3,5-dimethyl-1H-indol-2-yl)carbonyl]-N-hydroxy-1,2,3,4-tetrahydropyrrolo[1,2-a]pyrazine-7-carboxamide], under 100 nM. Compound `Cn1c(C(=O)N2CCn3nc(C(=O)NO)cc3C2)cc2ccccc21` [Compound I-31, N-hydroxy-5-[(1-methyl-1H-indol-2-yl)carbonyl]-4,5,6,7-tetrahydropyrazolo[1,5-a]pyrazine-2-carboxamide] showed an IC50 of under 100 nM. Same read-out and setting: next, `Cn1cccc1C(=O)N1CCn2cc(C(=O)NO)cc2C1` [Compound I-32, N-hydroxy-2-[(1-methyl-1H-pyrrol-2-yl)carbonyl]-1,2,3,4-tetrahydropyrrolo[1,2-a]pyrazine-7-carboxamide]: under 100 nM.

`Cc1cc(C(=O)N2CCn3cc(C(=O)NO)cc3C2)c(C)n1Cc1cccs1` [Compound I-35, 2-{[2,5-dimethyl-1-(2-thienylmethyl)-1H-pyrrol-3-yl]carbonyl}-N-hydroxy-1,2,3,4-tetrahydropyrrolo[1,2-a]pyrazine-7-carboxamide] yielded an IC50 of under 100 nM. The same measure, in the same setting: next, `O=C(NO)c1cc2n(c1)CCN(Cc1ccccc1)C2=O` [Compound I-42, 2-benzyl-N-hydroxy-1-oxo-1,2,3,4-tetrahydropyrrolo[1,2-a]pyrazine-7-carboxamide]: under 100 nM.

Staying with this experiment, now noted: bins: greater than 1 μM and less than 10 μM; greater than 10 μM.
`O=C(NO)c1cc2n(c1)CCN(C(=O)c1cn3ccccc3n1)C2` [Compound I-3, N-hydroxy-2-(imidazo[1,2-a]pyridin-2-ylcarbonyl)-1,2,3,4-tetrahydropyrrolo[1,2-a]pyrazine-7-carboxamide] had an IC50 of 1000 to 10000 nM. With `Cc1cc(C(=O)N2CCCn3cc(C(=O)NO)cc3C2)c(C)o1` [Compound I-4, 2-(2,5-dimethyl-3-furoyl)-N-hydroxy-2,3,4,5-tetrahydro-1H-pyrrolo[1,2-a][1,4]diazepine-8-carboxamide], the IC50 is over 10000 nM. On the same count and under the same terms, next, `Cn1c(C(=O)N2CCCn3cc(C(=O)NO)cc3C2)cc2oc(-c3ccc(C(F)(F)F)cc3)cc21` [Compound I-5, N-hydroxy-2-({4-methyl-2-[4-(trifluoromethyl)phenyl]-4H-furo[3,2-b]pyrrol-5-yl}carbonyl)-2,3,4,5-tetrahydro-1H-pyrrolo[1,2-a][1,4]diazepine-8-carboxamide]: 1000 to 10000 nM; `CC1(C(=O)N2CCn3nc(C(=O)NO)cc3C2)CCCCC1` [Compound I-6, N-hydroxy-5-[(1-methylcyclohexyl)carbonyl]-4,5,6,7-tetrahydropyrazolo[1,5-a]pyrazine-2-carboxamide]: 1000 to 10000 nM. Compound `Cc1c(C(=O)N2CCCn3cc(C(=O)NO)cc3C2)cnn1-c1ccccc1` [Compound I-7, N-hydroxy-2-[(5-methyl-1-phenyl-1H-pyrazol-4-yl)carbonyl]-2,3,4,5-tetrahydro-1H-pyrrolo[1,2-a][1,4]diazepine-8-carboxamide] showed a half-inhibitory concentration (IC50) of 1000 to 10000 nM. In turn, `O=C(NO)c1cc2n(n1)CCN(C(=O)C1(C(F)(F)F)CC1)C2` [Compound I-8, N-hydroxy-5-{[1-(trifluoromethyl)cyclopropyl]carbonyl}-4,5,6,7-tetrahydropyrazolo[1,5-a]pyrazine-2-carboxamide] gave a concentration for half-maximal inhibition (IC50) of 1000 to 10000 nM. The same measure, in the same setting: next, `CC(=O)c1c(C)[nH]c(C(=O)N2CCn3cc(C(=O)NO)cc3C2)c1C` [Compound I-15, 2-[(4-acetyl-3,5-dimethyl-1H-pyrrol-2-yl)carbonyl]-N-hydroxy-1,2,3,4-tetrahydropyrrolo[1,2-a]pyrazine-7-carboxamide]: 1000 to 10000 nM. `O=C(NO)c1cc2n(n1)CCN(C(=O)C13CC4CC(CC(C4)C1)C3)C2` [Compound I-16, 5-(1-adamantylcarbonyl)-N-hydroxy-4,5,6,7-tetrahydropyrazolo[1,5-a]pyrazine-2-carboxamide] had a concentration for half-maximal inhibition (IC50) of 1000 to 10000 nM. Still for that read-out and setting: the result for `CC(C)(C)c1ccc(C(=O)N2CCCn3cc(C(=O)NO)cc3C2)cc1` [Compound I-18, 2-(4-tert-butylbenzoyl)-N-hydroxy-2,3,4,5-tetrahydro-1H-pyrrolo[1,2-a][1,4]diazepine-8-carboxamide] reads 1000 to 10000 nM; that for `O=C(NO)c1cc2n(c1)CCCN(C(=O)C1CCCC1)C2` [Compound I-19, 2-(cyclopentylcarbonyl)-N-hydroxy-2,3,4,5-tetrahydro-1H-pyrrolo[1,2-a][1,4]diazepine-8-carboxamide], over 10000 nM. `CC1(C(=O)N2CCn3cc(C(=O)NO)nc3C2)CCCCC1` [Compound I-26, N-hydroxy-7-(1-methylcyclohexanecarbonyl)-5,6,7,8-tetrahydroimidazo[1,2-a]pyrazine-2-carboxamide] yielded an IC50 of 1000 to 10000 nM. On the same count and under the same terms, the result for `O=C(NO)c1cn2c(n1)CN(C(=O)C13CC4CC(CC(C4)C1)C3)CC2` [Compound I-27, 7-[1-adamantylcarbonyl]-N-hydroxy-5,6,7,8-tetrahydroimidazo[1,2-a]pyrazine-2-carboxamide] reads 1000 to 10000 nM.

For the compound `O=C(NO)c1cc2n(c1)CCCN(C(=O)C1(c3ccc(Cl)cc3)CC1)C2` [Compound I-34, 2-{[1-(4-chlorophenyl)cyclopropyl]carbonyl}-N-hydroxy-2,3,4,5-tetrahydro-1H-pyrrolo[1,2-a][1,4]diazepine-8-carboxamide], the IC50 lay within 1000 to 10000 nM. `CC(C)(C)C(=O)N1CCn2nc(C(=O)NO)cc2C1` [Compound I-36, 5-(2,2-dimethylpropanoyl)-N-hydroxy-4,5,6,7-tetrahydropyrazolo[1,5-a]pyrazine-2-carboxamide] had an IC50 of over 10000 nM. Same read-out and setting: next, `CC(C)(C(=O)N1CCn2nc(C(=O)NO)cc2C1)c1ccc(Cl)cc1` [Compound I-37, 5-[2-(4-chlorophenyl)-2-methylpropanoyl]-N-hydroxy-4,5,6,7-tetrahydropyrazolo[1,5-a]pyrazine-2-carboxamide]: 1000 to 10000 nM; `O=C(NO)c1cc2n(c1)CCCN(C(=O)C13CC4CC(CC(C4)C1)C3)C2` [Compound I-38, 2-[1-adamantylcarbonyl]-N-hydroxy-2,3,4,5-tetrahydro-1H-pyrrolo[1,2-a][1,4]diazepine-8-carboxamide]: 1000 to 10000 nM; `CC(C)(C)C(=O)N1CCn2cc(C(=O)NO)nc2C1` [Compound I-41, 7-(2,2-dimethylpropanoyl)-N-hydroxy-5,6,7,8-tetrahydroimidazo[1,2-a]pyrazine-2-carboxamide]: 1000 to 10000 nM.
